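Grown in 96-well plates, cells were treated for 48 hours with each compound at five concentrations. Insufficient inhibition: endpoint recorded as highest concentration tested. Abbreviation: GI50, concentration required for 50% inhibition of growth.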 Activity calls are given as the source filed them. Rule as the data show it: active = GI50 up to about 1.1 µM and inactive = higher.
Columns and labels:
Test in all cases: NCI-60 cell line screen, 48 h
[1] = tested on: 786-0
[2] = tested on: A498
[3] = tested on: A549
[4] = tested on: ACHN
[5] = tested on: BT-549
[6] = tested on: CCRF-CEM
[7] = tested on: COLO 205
[8] = tested on: DU-145
[9] = tested on: EKVX
[10] = tested on: HCC 2998
[11] = tested on: HCT-116
[12] = tested on: HCT-15
[13] = tested on: HL-60
[14] = tested on: HOP-62
[15] = tested on: HOP-92
[16] = tested on: HT-29
[17] = tested on: IGROV-1
[18] = tested on: K562
[19] = tested on: M14
[20] = tested on: MCF7
[21] = tested on: MDA-MB-231
[22] = tested on: MDA-MB-435
[23] = tested on: MOLT-4
[24] = tested on: Malme-3M
[25] = tested on: NCI-H226
[26] = tested on: NCI-H23
[27] = tested on: NCI-H460
[28] = tested on: NCI/ADR-RES
[29] = tested on: OVCAR-3
[30] = tested on: OVCAR-4
[31] = tested on: OVCAR-5
[32] = tested on: OVCAR-8
[33] = tested on: PC-3
[34] = tested on: RPMI-8226
[35] = tested on: SF-268
[36] = tested on: SF-295
[37] = tested on: SK-MEL-28
[38] = tested on: SK-MEL-5
[39] = tested on: SK-OV-3
[40] = tested on: SN12C
[41] = tested on: SNB-19
[42] = tested on: SNB-75
[43] = tested on: SR
[44] = tested on: SW-620
[45] = tested on: T47D
[46] = tested on: TK-10
[47] = tested on: U-251
[48] = tested on: UACC-257
[49] = tested on: UACC-62
[50] = tested on: UO-31
[51] = tested on: Hs-578T
[52] = tested on: KM12
[53] = tested on: LOX IMVI
[54] = tested on: RXF 393
[55] = tested on: SF-539
[56] = tested on: CAKI-1
[57] = tested on: NCI-H522
[58] = tested on: SK-MEL-2

`COc1ccc(C2Oc3c(cccc3-c3c(-c4ccc(O)cc4)oc4cc(O)cc(O)c4c3=O)C(=O)C2O)cc1O` (configuration not stated) was tested, and the GI50 [1] was > 100 µM (inactive), the GI50 [2] was > 100 µM (inactive) and the GI50 [3] was > 100 µM (inactive). The GI50 [4] was > 100 µM (inactive), the GI50 [5] was > 100 µM (inactive) and the GI50 [6] was > 100 µM (inactive). For the same compound, the GI50 [7] was > 100 µM (inactive), the GI50 [8] was > 100 µM (inactive) and the GI50 [9] was > 100 µM (inactive). For the same compound, the GI50 [10] was > 100 µM (inactive), the GI50 [11] was > 100 µM (inactive) and the GI50 [12] was over 100 µM. The GI50 [13] was > 100 µM (inactive), the GI50 [14] was > 100 µM (inactive) and the GI50 [15] was > 100 µM (inactive). The GI50 [16] was > 100 µM (inactive), the GI50 [17] was > 100 µM (inactive) and the GI50 [18] was > 100 µM (inactive). The GI50 [19] was > 100 µM (inactive), the GI50 [20] was > 100 µM (inactive) and the GI50 [21] was > 100 µM (inactive). The GI50 [22] was > 100 µM (inactive), the GI50 [23] was > 100 µM (inactive) and the GI50 [24] was > 100 µM (inactive). The GI50 [25] was > 100 µM (inactive), the GI50 [26] was > 100 µM (inactive) and the GI50 [27] was > 100 µM (inactive). The GI50 [28] was > 100 µM (inactive), the GI50 [29] was > 100 µM (inactive) and the GI50 [30] was > 100 µM (inactive). For the same compound, the GI50 [31] was > 100 µM (inactive), the GI50 [32] was > 100 µM (inactive) and the GI50 [33] was > 100 µM (inactive). For the same compound, the GI50 [34] was 83.2 µM (inactive), the GI50 [35] was > 100 µM (inactive) and the GI50 [36] was > 100 µM (inactive). For the same compound, the GI50 [37] was > 100 µM (inactive), the GI50 [38] was > 100 µM (inactive) and the GI50 [39] was > 100 µM (inactive). The GI50 [40] was > 100 µM (inactive), the GI50 [41] was > 100 µM (inactive) and the GI50 [42] was 60.4 µM (inactive). For the same compound, the GI50 [43] was > 100 µM (inactive), the GI50 [44] was > 100 µM (inactive) and the GI50 [45] was > 100 µM (inactive). The GI50 [46] was > 100 µM (inactive), the GI50 [47] was > 100 µM (inactive) and the GI50 [48] was > 100 µM (inactive). The GI50 [49] was > 100 µM (inactive) and the GI50 [50] was > 100 µM (inactive).

In the case of `CC/C=C/C(=O)CC(O)(C(F)(F)F)C(F)(F)F`, the GI50 [1] is reported as > 100 µM (inactive), the GI50 [2] is reported as 22.5 µM (inactive) and the GI50 [3] is reported as > 100 µM (inactive). The GI50 [4] was > 100 µM (inactive), the GI50 [6] was 73.5 µM (inactive) and the GI50 [7] was > 100 µM (inactive). For the same compound, the GI50 [8] was > 100 µM (inactive), the GI50 [9] was > 100 µM (inactive) and the GI50 [10] was > 100 µM (inactive). The GI50 [11] was > 100 µM (inactive), the GI50 [12] was over 100 µM and the GI50 [13] was 92.7 µM (inactive). For the same compound, the GI50 [14] was > 100 µM (inactive), the GI50 [15] was 32.4 µM (inactive) and the GI50 [16] was > 100 µM (inactive). For the same compound, the GI50 [51] was 19 µM (inactive), the GI50 [17] was > 100 µM (inactive) and the GI50 [52] was > 100 µM (inactive). For the same compound, the GI50 [53] was > 100 µM (inactive), the GI50 [19] was > 100 µM (inactive) and the GI50 [20] was > 100 µM (inactive). For the same compound, the GI50 [21] was > 100 µM (inactive), the GI50 [22] was > 100 µM (inactive) and the GI50 [23] was > 100 µM (inactive). For the same compound, the GI50 [24] was > 100 µM (inactive), the GI50 [25] was > 100 µM (inactive) and the GI50 [26] was > 100 µM (inactive). For the same compound, the GI50 [27] was > 100 µM (inactive), the GI50 [28] was > 100 µM (inactive) and the GI50 [30] was > 100 µM (inactive). For the same compound, the GI50 [31] was > 100 µM (inactive), the GI50 [32] was > 100 µM (inactive) and the GI50 [34] was 54.8 µM (inactive). For the same compound, the GI50 [54] was > 100 µM (inactive), the GI50 [35] was > 100 µM (inactive) and the GI50 [36] was > 100 µM (inactive). The GI50 [55] was > 100 µM (inactive), the GI50 [37] was > 100 µM (inactive) and the GI50 [38] was > 100 µM (inactive). The GI50 [39] was > 100 µM (inactive), the GI50 [40] was > 100 µM (inactive) and the GI50 [41] was > 100 µM (inactive). The GI50 [42] was > 100 µM (inactive), the GI50 [43] was > 100 µM (inactive) and the GI50 [44] was > 100 µM (inactive). The GI50 [45] was 82.2 µM (inactive), the GI50 [46] was > 100 µM (inactive) and the GI50 [47] was > 100 µM (inactive). The GI50 [48] was > 100 µM (inactive), the GI50 [49] was > 100 µM (inactive) and the GI50 [50] was 54 µM (inactive).

In the case of `Cc1ccc(S(=O)(=O)Oc2nc3nc4ccccc4nc3nc2OS(=O)(=O)c2ccc(C)cc2)cc1`, the GI50 [1] is reported as > 100 µM (inactive), the GI50 [2] is reported as > 100 µM (inactive) and the GI50 [3] is reported as > 100 µM (inactive). For the same compound, the GI50 [4] was > 100 µM (inactive), the GI50 [5] was > 100 µM (inactive) and the GI50 [56] was > 100 µM (inactive). The GI50 [6] was 5.28 µM (inactive), the GI50 [7] was > 100 µM (inactive) and the GI50 [8] was > 100 µM (inactive). The GI50 [9] was 13.6 µM (inactive), the GI50 [10] was > 100 µM (inactive) and the GI50 [11] was > 100 µM (inactive). The GI50 [12] was over 100 µM, the GI50 [13] was > 10 µM (inactive) and the GI50 [16] was > 100 µM (inactive). For the same compound, the GI50 [51] was > 100 µM (inactive), the GI50 [17] was > 100 µM (inactive) and the GI50 [52] was > 100 µM (inactive). For the same compound, the GI50 [19] was > 100 µM (inactive), the GI50 [20] was > 100 µM (inactive) and the GI50 [21] was > 100 µM (inactive). For the same compound, the GI50 [22] was > 100 µM (inactive), the GI50 [24] was > 100 µM (inactive) and the GI50 [25] was > 100 µM (inactive). For the same compound, the GI50 [26] was > 100 µM (inactive), the GI50 [27] was > 100 µM (inactive) and the GI50 [57] was > 100 µM (inactive). The GI50 [28] was > 100 µM (inactive), the GI50 [29] was > 100 µM (inactive) and the GI50 [31] was > 100 µM (inactive). The GI50 [32] was > 100 µM (inactive), the GI50 [33] was > 100 µM (inactive) and the GI50 [34] was > 100 µM (inactive). The GI50 [54] was > 100 µM (inactive), the GI50 [35] was > 100 µM (inactive) and the GI50 [36] was > 100 µM (inactive). For the same compound, the GI50 [55] was > 100 µM (inactive), the GI50 [37] was > 100 µM (inactive) and the GI50 [58] was > 100 µM (inactive). The GI50 [38] was > 100 µM (inactive), the GI50 [39] was > 100 µM (inactive) and the GI50 [40] was > 100 µM (inactive). The GI50 [41] was > 100 µM (inactive), the GI50 [42] was > 100 µM (inactive) and the GI50 [46] was > 100 µM (inactive). For the same compound, the GI50 [47] was > 100 µM (inactive), the GI50 [48] was > 100 µM (inactive) and the GI50 [49] was > 100 µM (inactive). The GI50 [50] was 53.7 µM (inactive).

For `Cc1nc(=O)n2c(c1C(=O)Nc1ccc(Cl)cc1)NCC2`, the GI50 [2] was > 72.8 µM (inactive) and the GI50 [15] was > 79.4 µM (inactive).

Reference: ChEMBL document CHEMBL1201862, “PubChem BioAssay data set” (2004)
